Patent US20260200892A1, “CANNABINOID RECEPTOR 2 MODULATORS” (Hoffmann-La Roche Inc., priority 2023, published 2026)

Experiments:
[1] = target: T1, human CB2 receptor (hCB2R) (Homo sapiens, UniProt P34972); assay: TR-FRET hCB2R binding assay; settings: TR-FRET, membranes of SNAP-tagged human CB2R HEK293-TR cells, 100 μM GppNHp, nonspecific binding with SR144528; read-out: Kd hCB2R
T1 construct: expressed in transfected cells; membranes

hCB1R = hCB1R (Homo sapiens, UniProt P21554); assay: hCB1R binding (Kd hCB1R, Table 1)
[2] = target: T2, CB2 receptor (hCB2R), CHO cell line stably overexpressing CB2 receptor (Homo sapiens, UniProt P34972); assay: cAMP hCB2R functional assay (HTRF); type: cell-based; settings: CHO cells overexpressing CB2 receptor, forskolin; for EC50: means ± SEM of 2-3 independent experiments; for Functionality: normalized to Emax of CP55940 (100%)
T2 construct: expressed in transfected cells; host or cells: CHO cell line stably overexpressing CB2 receptor (G418 selection)
Description: cAMP hCB2R Functional Assay
The Homogeneous Time Resolved Fluorescence (HTRF) Assays
The homogeneous time-resolved fluorescence (HTRF) cAMP assay was conducted according to the manufacturer's protocol for the cAMP-Gs Dynamic kit (Cisbio). Briefly, the CHO cell line stably overexpressing CB2 receptor were maintained in Ham's F12 supplemented with 10% FBS, 100 U/ml penicillin and 100 μg/ml streptomycin (Gibco-ThermoFisher) and 400 μg/ml G418 (ThermoFisher). For CB2 compounds test, harvest the cells with Cell Dissociation Buffer and re-suspend the cells in F-12 K at 0.4*10^6 cells/mL, and dispense cells into 384-well low volume plates at 2000 cells/5 μL per well. The cells were stimulated with compounds diluted in Stimulation Buffer (2.5 μL/well) for 15 min at room temperature. And then followed by the addition of 2.5 μL 25 μM forsklin. After 15 mins incubation, reactions were stopped by 5 μL/well cAMP-d2 conjugate working solution followed by 5 μL/well of anti-cAMP cryptate working solution. After incubation for 1 h at room temperature, the plates were read in a PerkinElmer Envision reader for time-resolved fluorescence resonance energy transfer detection at 620 nm and 665 nm.
Quantification and Statistical Analysis
All HTRF ratio data sets of test compounds were normalized to the Emax of CP55940 (100%) and obtained the means±standard error of the mean (SEM) of 2-3 independent experiments performed in technical replicates.

hCB1R, sequence (P21554 whole entry): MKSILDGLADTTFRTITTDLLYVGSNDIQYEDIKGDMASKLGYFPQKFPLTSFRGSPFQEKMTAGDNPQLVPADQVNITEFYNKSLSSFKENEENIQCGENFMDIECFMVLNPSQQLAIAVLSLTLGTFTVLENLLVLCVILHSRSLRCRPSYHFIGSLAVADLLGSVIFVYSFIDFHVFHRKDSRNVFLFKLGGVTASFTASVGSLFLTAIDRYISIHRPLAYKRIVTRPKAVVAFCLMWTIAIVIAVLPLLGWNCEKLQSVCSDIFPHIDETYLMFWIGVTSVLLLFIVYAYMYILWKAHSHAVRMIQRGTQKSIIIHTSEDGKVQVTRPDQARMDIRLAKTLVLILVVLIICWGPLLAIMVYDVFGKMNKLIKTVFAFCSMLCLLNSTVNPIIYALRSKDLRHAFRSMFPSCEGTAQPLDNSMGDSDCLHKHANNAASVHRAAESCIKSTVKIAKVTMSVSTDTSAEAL
T1 sequence (P34972 whole entry): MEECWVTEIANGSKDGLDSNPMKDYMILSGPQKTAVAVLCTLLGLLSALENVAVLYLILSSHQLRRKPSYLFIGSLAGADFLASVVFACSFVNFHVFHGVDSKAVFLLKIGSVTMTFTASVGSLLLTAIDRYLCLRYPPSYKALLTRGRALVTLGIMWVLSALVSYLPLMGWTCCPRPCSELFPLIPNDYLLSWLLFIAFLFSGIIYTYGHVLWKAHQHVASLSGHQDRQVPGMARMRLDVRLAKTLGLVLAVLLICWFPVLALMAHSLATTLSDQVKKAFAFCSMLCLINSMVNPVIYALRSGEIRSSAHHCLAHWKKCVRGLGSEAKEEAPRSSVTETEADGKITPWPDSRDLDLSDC
T2 sequence (P34972 whole entry): as above

| SMILES | Kd [1] [nM] | Kd (hCB1R) [nM] | EC50 [2] [nM] | Functionality [2] |
| --- | --- | --- | --- | --- |
| CCCCC[C@H](c1ccccc1)C(C)(C)c1cc(OC)c([C@H]2C=C(CO)[C@H]3C[C@@H]2C3(C)C)c(OC)c1 [Example 7, ((1S,4S,5S)-4-(2,6-dimethoxy-4-((R)-2-methyl-3-phenyloctan-2-yl)phenyl)-6,6-dimethylbicyclo[3.1.1]hept-2-en-2-yl)methanol] | 197 | 1040 | 417 | inverse agonist |
| COc1cc(C(C)(C)[C@H](CCCCCN=[N+]=[N-])c2ccccc2)cc(OC)c1[C@H]1C=C(CNC(=O)CCCCCCNc2ccc([N+](=O)[O-])c3nonc23)[C@H]2C[C@@H]1C2(C)C [Example 24, N-(((1S,4S,5S)-4-(4-((R)-8-azido-2-methyl-3-phenyloctan-2-yl)-2,6-dimethoxyphenyl)-6,6-dimethylbicyclo[3.1.1]hept-2-en-2-yl)methyl)-7-((7-nitrobenzo [c][1,2,5]oxadiazol-4-yl)amino)heptanamide] | 12.3 | 840 | 1230 | inverse agonist |
| CCN(CC)c1ccc2cc(/C=C/c3ccc(S(=O)(=O)[O-])c[n+]3CCCCCC(=O)NCC3=C[C@H](c4c(OC)cc(C(C)(C)[C@H](CCCCCN=[N+]=[N-])c5ccccc5)cc4OC)[C@@H]4C[C@H]3C4(C)C)c(=O)oc2c1 [Example 22, 1-(6-((((1S,4S,5S)-4-(4-((R)-8-azido-2-methyl-3-phenyloctan-2-yl)-2,6-dimethoxyphenyl)-6,6-dimethylbicyclo[3.1.1]hept-2-en-2-yl)methyl)amino)-6-oxohexyl)-6-((E)-2-(7-(diethylamino)-2-oxo-2H-chromen-3-yl)vinyl)pyridin-1-ium-3-sulfonate] | 10.2 | 1740 | 70.8 | inverse agonist |
